Data: EP0365210A1, “Hydroxamic acid derivatives” (KYOWA HAKKO KOGYO CO., LTD., priority 1988, dated 1990)

Molecular target: T1, leucocyte 5-lipoxygenase (Rattus norvegicus, UniProt P12527)
T1 construct: rat basophilic leukemia cells (RBL-1, ATCC No. CRL 1378) were used as the source of 5-lipoxygenase; host or cells: RBL-1 rat basophilic leukemia cells
T1 sequence (P12527 1-673): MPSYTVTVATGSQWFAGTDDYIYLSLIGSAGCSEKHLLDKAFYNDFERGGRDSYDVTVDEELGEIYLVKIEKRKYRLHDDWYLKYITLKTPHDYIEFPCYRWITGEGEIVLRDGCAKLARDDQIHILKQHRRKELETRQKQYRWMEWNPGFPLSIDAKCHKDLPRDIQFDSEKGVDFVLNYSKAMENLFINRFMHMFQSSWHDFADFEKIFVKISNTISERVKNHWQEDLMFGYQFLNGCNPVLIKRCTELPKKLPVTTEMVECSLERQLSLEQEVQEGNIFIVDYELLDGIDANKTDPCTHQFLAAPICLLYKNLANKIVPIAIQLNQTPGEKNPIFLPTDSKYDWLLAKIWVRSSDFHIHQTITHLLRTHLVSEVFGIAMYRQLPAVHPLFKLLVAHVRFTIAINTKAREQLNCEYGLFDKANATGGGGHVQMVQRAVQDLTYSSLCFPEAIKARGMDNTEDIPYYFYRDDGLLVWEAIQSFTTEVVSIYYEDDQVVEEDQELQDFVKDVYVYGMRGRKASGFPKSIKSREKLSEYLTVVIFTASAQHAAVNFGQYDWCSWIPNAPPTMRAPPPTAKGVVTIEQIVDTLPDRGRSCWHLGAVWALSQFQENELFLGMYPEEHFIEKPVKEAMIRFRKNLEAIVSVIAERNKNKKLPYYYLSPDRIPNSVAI
Assay: Inhibitory activity against leucocyte 5-lipoxygenase (5-HETE formation by HPLC, RBL-1 cells as enzyme source)
Format: biochemical
Settings: rat basophilic leukemia cells (RBL-1) as source of 5-lipoxygenase; arachidonic acid substrate; 37°C; pH 7.4
Protocol: a) Method for determining the inhibitory activity against leucocyte 5-lipoxygenase:
Lipoxygenase activity was determined by a modification of the method of B.A. Jakschik et al. [Biochem. Biophys. Res. Commun., 95, 103 (1980)]. That is, rat basophilic leukemia cells (RBL-1, ATCC No. CRL 1378) were used as the source of 5-lipoxygenase. The cells were contacted with a test compound in 60 µl of 0.17 M Trishydrochloride buffer (pH 7.4) containing […] calcium chloride, 3.3 mM adenosine triphosphate and 1 mM glutathione at 37°C for 5 minutes. Then,-50 µl of 60 µM arachidonic acid was added to the reaction mixture and the mixture was allowed to stand at 37° C for 5 minutes. To the mixture were added 200 µl of methanol and 13-hydroxylinoleic acid as the internal standard, followed by thorough shaking. The mixture was allowed to stand at -20 C for 30 minutes and then centrifuged at 12000 r.p.m. for 10 minutes. After the supernatant was evaporated to dryness in a stream of nitrogen, 200 µl of 75% aqueous methanol was added to the residue. The resulting solution (100 µl) was subjected to high performance liquid chromatography to quantitatively determine 5-HETE (5-hydroxyeicosatetraenoic acid). The absorption at 234 nm was measured with a UV absorption monitor and the amount of 5-HETE produced was determined from the peak area corrected by the peak of the internal standard. The test was carried out using the test compound at various concentrations and the concentration that inhibits 50% enzyme activity was determined as the inhibitory activity.

Row | IC50 [nM] | Structure (SMILES)
1 | 300 | CCCCCCCCCCCN(O)C(=O)c1ccccc1 [Compound 12]
2 | 20 | CCCCCCCCCCCC(=O)N(O)CCCN1C(=O)CCC1=O [Compound 3]
3 | 36 | CCCCCCCCCCCC(=O)N(O)CCCCCN1C(=O)CCCC1=O [Compound 5]
4 | 38 | CCCCCCCCCCCN(O)C(=O)CCC(=O)OC [Compound 7]
5 | 25 | CCCCCCCCCCCC(=O)N(O)CCCCCN1CCCC1=O [Compound 6]
6 | 34 | CCCCCCCCCCCN(O)C(C)=O [Compound 10]
7 | 40 | CCCCCCCCCCCC(=O)N(O)CCCCCN1C(=O)c2ccccc2C1=O [Compound 4]
8 | 20 | CCCCCCCCCCCC(=O)N(O)CCCCCCCN1C(=O)CCC1=O [Compound 1]
9 | 44 | CCCCCCCCCCCN(O)C(=O)CCC [Compound 11]
10 | 20 | CCCCCCCCCCCN(O)C(=O)CCCCCN1C(=O)CCC1=O [Compound 2]
